Among the test systems are HL-60(TB) leukemia; HCT-116 colon; UACC-62 melanoma; CAKI-1 renal; SF-539 CNS; HOP-92 NSCLC; SK-MEL-28 melanoma; MALME-3M melanoma.
What all share (assay): NCI-60 cell line screen, 48 h

This passage reports TGI and GI50 results from PubChem BioAssay (NCI).

“And” between values parts separate entries of the source, which are not always exact repeats. Equal values may be shown once.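 In this assay, cells in 96-well plates receive the compound at five concentrations for 48 hours. Endpoints are linearly interpolated between the surrounding concentrations. The concentration for 50% growth inhibition is given as GI50. TGI: concentration producing complete growth inhibition.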

With `Cc1ccc(NC(=O)CC2C(=O)Nc3ccccc3S2(=O)=O)cc1C` (stereo not given), the TGI with HL-60(TB) leukemia, in the experiment on HCT-116 colon, with UACC-62 melanoma, in the experiment with CAKI-1 renal, in the experiment on SF-539 CNS and in the experiment with HOP-92 NSCLC was above 100 µM in each case. For the same compound, the TGI in the experiment with SK-MEL-28 melanoma and in the experiment on MALME-3M melanoma was above 100 µM throughout.

With `CCOc1cc[n+](C(=C=[N-])C#N)cc1`, the TGI in the experiment with HL-60(TB) leukemia, in the experiment on HCT-116 colon, in the experiment on UACC-62 melanoma, in the experiment with CAKI-1 renal, in the experiment with SF-539 CNS and with HOP-92 NSCLC was above 100 µM each time. This compound also registered a TGI with MALME-3M melanoma above 100 µM.

For `C/C(=N\NS(=O)(=O)c1ccccc1)c1ccc[n+]([O-])n1`, the TGI was 69.9 µM in the experiment with HL-60(TB) leukemia; above 100 µM in the experiment with HCT-116 colon; above 100 µM in the experiment on UACC-62 melanoma; above 100 µM in the experiment on CAKI-1 renal; above 100 µM with SF-539 CNS; above 100 µM in the experiment with HOP-92 NSCLC. Further, in the experiment with SK-MEL-28 melanoma, the TGI was above 100 µM.

On to `CCOc1ccccc1NC(=O)C(=O)c1c(O)c2ccc(O)cc2oc1=O`, for which the TGI with HL-60(TB) leukemia, in the experiment with HCT-116 colon, in the experiment with UACC-62 melanoma, in the experiment with CAKI-1 renal, in the experiment with SF-539 CNS and in the experiment with SK-MEL-28 melanoma was above 100 µM each time. The compound further came in with a TGI with MALME-3M melanoma above 100 µM.

As to `C=C1CC(CC(=O)C(C)CC2CC(=C)C(=O)O2)OC1=O` (stereo not given), the TGI in the experiment with HL-60(TB) leukemia stood at 33.6 µM; in the experiment with HCT-116 colon, 24.6 µM; in the experiment on UACC-62 melanoma it was 30.1 µM; with SF-539 CNS, 37.7 µM; in the experiment with HOP-92 NSCLC it was 32.1 µM; with SK-MEL-28 melanoma, 30.4 µM. Further, the TGI in the experiment with MALME-3M melanoma turned out to be 28.4 µM.

As to `Cc1ccc(SSCCCCS(=O)O)cc1`, the TGI in the experiment with HL-60(TB) leukemia is 20.4 µM; with HCT-116 colon it was above 100 µM; with UACC-62 melanoma, 42.6 µM; with CAKI-1 renal, 40.9 µM; with SF-539 CNS it was 38.1 µM; with SK-MEL-28 melanoma, 44.1 µM. In addition, in the experiment with MALME-3M melanoma, the TGI came out at 69.7 µM.

Regarding `CCCCCCC(=O)CC(=O)C(=O)Nc1ccccc1C`, the TGI in the experiment with HL-60(TB) leukemia, with HCT-116 colon, with UACC-62 melanoma, in the experiment with CAKI-1 renal, with SF-539 CNS and in the experiment on HOP-92 NSCLC was above 100 µM in each case. Also, the TGI in the experiment on SK-MEL-28 melanoma and in the experiment with MALME-3M melanoma was above 100 µM in each case.

With `Cc1c(C(=O)Nc2ccc(Cl)cc2)nc(N)nc1-c1cccc(Cl)c1`, the TGI in the experiment on HL-60(TB) leukemia is above 100 µM; in the experiment on HCT-116 colon it was above 100 µM; in the experiment on UACC-62 melanoma, above 100 µM; in the experiment with CAKI-1 renal, above 100 µM; in the experiment with SF-539 CNS, above 100 µM; in the experiment with HOP-92 NSCLC it was 95.6 µM. The TGI with SK-MEL-28 melanoma and with MALME-3M melanoma was above 100 µM in each case.

Consider `Nc1ncnc2c1ncn2COC/C=C/I`, for which the TGI with HCT-116 colon, in the experiment on UACC-62 melanoma, in the experiment on CAKI-1 renal, in the experiment on SF-539 CNS, in the experiment on HOP-92 NSCLC and in the experiment on SK-MEL-28 melanoma was above 100 µM each time. The compound also yielded a TGI in the experiment with MALME-3M melanoma above 100 µM.

Take `CC1=C(C(=O)NCc2ccccc2)C(c2ccccc2O)C(C(=O)NCc2ccccc2)=C(C)N1`: the TGI was determined as 62.2 µM with HL-60(TB) leukemia; 28.5 µM in the experiment on HCT-116 colon; 34 µM with UACC-62 melanoma; 44.3 µM in the experiment with CAKI-1 renal; 38.5 µM in the experiment on SF-539 CNS; 48.7 µM with HOP-92 NSCLC. In addition, the TGI came out at 35.8 µM in the experiment on SK-MEL-28 melanoma and 30.1 µM in the experiment with MALME-3M melanoma.

With `CC(=O)Nc1ccccc1S(=O)c1ccccc1` (stereo not given), the TGI in the experiment with HL-60(TB) leukemia, with HCT-116 colon, in the experiment on UACC-62 melanoma, in the experiment on CAKI-1 renal, in the experiment with SF-539 CNS and in the experiment with HOP-92 NSCLC was above 100 µM each time. Also, the TGI in the experiment with SK-MEL-28 melanoma and with MALME-3M melanoma was above 100 µM each time.

As for `NNC(=O)N/N=C1/C(=O)N(c2ccc(Cl)c(Cl)c2)C(=O)C(=O)C1c1nc2ccccc2o1` (stereo not given), the TGI in the experiment on HL-60(TB) leukemia, in the experiment on HCT-116 colon, with UACC-62 melanoma, with CAKI-1 renal, in the experiment with SF-539 CNS and in the experiment with HOP-92 NSCLC was above 100 µM throughout. Also, the TGI in the experiment on SK-MEL-28 melanoma and in the experiment with MALME-3M melanoma was above 100 µM each time.

In the case of `CCN(CC)c1ccc(N=C2C=CC(=C(C#N)C#N)c3ccccc32)c(C)c1`, the TGI in the experiment on HL-60(TB) leukemia amounted to 3.61 µM; in the experiment with HCT-116 colon, 5.8 µM; in the experiment with UACC-62 melanoma, 3.43 µM; in the experiment on CAKI-1 renal, 5.4 µM; in the experiment on HOP-92 NSCLC it was 2.19 µM; in the experiment on SK-MEL-28 melanoma it was 4.22 µM. This compound came in with a TGI with MALME-3M melanoma of 4.51 µM.

On to `Cc1ccccc1NC(=O)CC(=O)n1nc(-c2ccccc2)c(N=Nc2ccc([N+](=O)[O-])cc2)c1-c1ccccc1`, for which the TGI with HL-60(TB) leukemia turned out to be 60.5 µM; with HCT-116 colon it was 31.5 µM; in the experiment with UACC-62 melanoma it was 29.6 µM; with CAKI-1 renal, 40.4 µM; in the experiment on SF-539 CNS, 52 µM; with HOP-92 NSCLC, 34 µM. The TGI is 96.9 µM with SK-MEL-28 melanoma and 75.9 µM in the experiment on MALME-3M melanoma.

For the compound `COc1ccc(S(=O)(=O)N/N=C/CN2C(=O)c3ccccc3C2=O)cc1`, the TGI in the experiment on HL-60(TB) leukemia, in the experiment on UACC-62 melanoma, with CAKI-1 renal, with SF-539 CNS and in the experiment with MALME-3M melanoma was above 100 µM in each case.

`NC(C(=O)O)c1ccc(C(=O)O)cc1` (stereo not given): the TGI in the experiment on HL-60(TB) leukemia, with UACC-62 melanoma, in the experiment with CAKI-1 renal, in the experiment with SF-539 CNS, in the experiment on SK-MEL-28 melanoma and in the experiment with MALME-3M melanoma was above 100 µM in each case.

Regarding `CN(C)c1ccc(/C=c2\sc3nnc(Cc4ccccc4)n3c2=O)cc1`, the TGI with HL-60(TB) leukemia is above 10 µM; in the experiment with HCT-116 colon, > 10 µM and 35.4 µM; in the experiment with UACC-62 melanoma, above 100 µM; with CAKI-1 renal, above 100 µM; with SF-539 CNS, above 100 µM; with HOP-92 NSCLC, above 100 µM. The TGI in the experiment with SK-MEL-28 melanoma and in the experiment on MALME-3M melanoma was above 100 µM in each case. The GI50 in the experiment on HCT-116 colon was above 10 µM; in the experiment with UACC-62 melanoma, above 100 µM; in the experiment with CAKI-1 renal, above 100 µM; in the experiment with SF-539 CNS, above 100 µM; in the experiment on SK-MEL-28 melanoma it was above 100 µM; in the experiment with MALME-3M melanoma, above 100 µM.
